# Measured values: article PMC7180638, “Synthesis of Pyrrolidine Monocyclic Analogues of Pochonicine and Its Stereoisomers: Pursuit of Simplified Structures and Potent β-N-Acetylhexosaminidase Inhibition” (Molecules, 2020)
# Structures can show the parent of a compound that is named as a salt. Where two headings read alike, the source gives them in different places.
# Assays:
# Format in all cases: biochemical
# [1] = biological target: β-N-Acetylhexosaminidase (HL60); assay: β-N-Acetylhexosaminidase (HL60) inhibition; settings: for IC50: β-N-Acetylhexosaminidase (β-GlcNAcase); for Inhibition % at 1000 μM: β-N-Acetylhexosaminidase
# Protocol: (§1) With rat intestinal maltase as an exception, other enzymes were purchased from Sigma-Aldrich Chemical Co. (St. Louis, MO, USA). Brush border membranes prepared from rat small intestine according to the method of Kessler et al. were assayed at pH 6.8 for rat intestinal maltase using maltose. The released D-glucose was determined colorimetrically using the Glucose CII-test Wako (Wako Pure Chemical Ind.; Osaka, Japan). Other glycosidase activities were determined using an appropriate p-nitrophenyl glycoside as substrate in a buffer solution at the optimal pH value of each enzyme. The reaction was stopped by adding 400 mM Na2CO3. The released p-nitrophenol was measured spectrometrically at 400 nm.
# [2] = biological target: β-N-Acetylhexosaminidase (Bovine liver); assay: β-N-Acetylhexosaminidase (bovine liver) inhibition; settings: for IC50: β-N-Acetylhexosaminidase (β-GlcNAcase)
# Protocol: as §1
# [3] = biological target: β-Glucosidase (Bovine liver); assay: β-Glucosidase (bovine liver) inhibition
# Protocol: as §1
# [4] = biological target: T1, β-Glucuronidase (Bovine liver) (Bos taurus, UniProt A3KMY8); assay: β-Glucuronidase (bovine liver) inhibition
# T1 construct: purchased Sigma-Aldrich Chemical Co; host or cells: bovine liver
# T1 sequence (A3KMY8 1-652): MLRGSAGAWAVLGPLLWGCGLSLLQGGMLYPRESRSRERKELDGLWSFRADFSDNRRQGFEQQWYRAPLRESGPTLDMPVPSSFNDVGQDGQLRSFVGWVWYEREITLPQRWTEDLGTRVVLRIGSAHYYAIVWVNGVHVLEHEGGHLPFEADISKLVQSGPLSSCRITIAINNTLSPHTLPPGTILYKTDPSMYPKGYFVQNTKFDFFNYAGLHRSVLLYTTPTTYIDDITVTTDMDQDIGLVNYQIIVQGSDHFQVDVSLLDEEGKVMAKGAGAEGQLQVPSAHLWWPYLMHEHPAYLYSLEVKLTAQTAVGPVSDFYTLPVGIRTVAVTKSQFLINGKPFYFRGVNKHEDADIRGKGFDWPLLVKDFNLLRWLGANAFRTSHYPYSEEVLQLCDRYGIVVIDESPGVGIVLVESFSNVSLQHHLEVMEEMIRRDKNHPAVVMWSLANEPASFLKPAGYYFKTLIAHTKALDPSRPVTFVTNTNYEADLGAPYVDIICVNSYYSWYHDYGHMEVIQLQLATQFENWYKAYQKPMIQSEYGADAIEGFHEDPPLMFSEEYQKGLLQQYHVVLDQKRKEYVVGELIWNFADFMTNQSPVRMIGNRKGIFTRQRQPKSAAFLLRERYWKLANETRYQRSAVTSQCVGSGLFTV
# Protocol: as §1
# [5] = biological target: α-Glucosidase (Yeast) (Saccharomyces cerevisiae, UniProt P53341); assay: α-Glucosidase (yeast) inhibition
# Sequence of α-Glucosidase (Yeast) (P53341 whole entry): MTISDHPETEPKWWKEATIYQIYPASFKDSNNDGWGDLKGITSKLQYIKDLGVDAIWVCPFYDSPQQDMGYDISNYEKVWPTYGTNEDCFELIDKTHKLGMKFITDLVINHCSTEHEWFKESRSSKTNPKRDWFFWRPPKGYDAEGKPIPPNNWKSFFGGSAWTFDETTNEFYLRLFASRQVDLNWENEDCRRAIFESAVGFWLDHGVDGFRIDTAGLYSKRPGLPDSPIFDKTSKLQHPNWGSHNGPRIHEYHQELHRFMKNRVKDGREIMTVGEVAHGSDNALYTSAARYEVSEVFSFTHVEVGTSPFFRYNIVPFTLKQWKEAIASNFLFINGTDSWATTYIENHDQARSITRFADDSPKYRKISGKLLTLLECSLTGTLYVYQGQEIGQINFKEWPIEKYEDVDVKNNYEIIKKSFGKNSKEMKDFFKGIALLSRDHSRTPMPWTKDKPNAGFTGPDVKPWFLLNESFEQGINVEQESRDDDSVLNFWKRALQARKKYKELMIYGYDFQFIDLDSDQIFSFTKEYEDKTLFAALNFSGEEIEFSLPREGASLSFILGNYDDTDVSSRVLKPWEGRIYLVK
# Protocol: as §1
# [6] = biological target: α-L-Rhamnosidase (P. decumbens); assay: α-L-Rhamnosidase (P. decumbens) inhibition
# Protocol: as §1
# [7] = biological target: T2, β-Glucuronidase (E. coli) (Escherichia coli, UniProt P05804); assay: β-Glucuronidase (E. coli) inhibition
# T2 construct: purchased Sigma-Aldrich Chemical Co
# T2 sequence (P05804 whole entry): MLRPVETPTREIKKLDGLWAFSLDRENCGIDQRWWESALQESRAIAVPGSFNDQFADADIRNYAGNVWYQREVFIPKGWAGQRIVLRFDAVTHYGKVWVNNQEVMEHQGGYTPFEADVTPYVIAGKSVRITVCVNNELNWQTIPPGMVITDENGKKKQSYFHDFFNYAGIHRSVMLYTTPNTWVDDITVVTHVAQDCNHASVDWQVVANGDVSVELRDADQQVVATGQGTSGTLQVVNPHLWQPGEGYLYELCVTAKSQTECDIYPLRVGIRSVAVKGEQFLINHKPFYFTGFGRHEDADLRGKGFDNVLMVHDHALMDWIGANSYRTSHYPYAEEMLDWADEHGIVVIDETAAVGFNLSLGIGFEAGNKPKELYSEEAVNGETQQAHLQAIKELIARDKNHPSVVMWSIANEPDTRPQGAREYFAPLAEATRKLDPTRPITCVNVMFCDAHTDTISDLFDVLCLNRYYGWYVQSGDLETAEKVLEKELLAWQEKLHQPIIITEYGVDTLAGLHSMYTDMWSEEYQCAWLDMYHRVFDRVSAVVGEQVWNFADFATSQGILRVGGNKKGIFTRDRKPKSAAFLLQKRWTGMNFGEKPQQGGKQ
# Protocol: as §1
# [8] = biological target: T3, α-L-Fucosidase (Bovine kidney) (Bos taurus, UniProt Q2KIM0); assay: α-L-Fucosidase (bovine kidney) inhibition
# T3 construct: purchased Sigma-Aldrich Chemical Co; host or cells: bovine kidney
# T3 sequence (Q2KIM0 23-468): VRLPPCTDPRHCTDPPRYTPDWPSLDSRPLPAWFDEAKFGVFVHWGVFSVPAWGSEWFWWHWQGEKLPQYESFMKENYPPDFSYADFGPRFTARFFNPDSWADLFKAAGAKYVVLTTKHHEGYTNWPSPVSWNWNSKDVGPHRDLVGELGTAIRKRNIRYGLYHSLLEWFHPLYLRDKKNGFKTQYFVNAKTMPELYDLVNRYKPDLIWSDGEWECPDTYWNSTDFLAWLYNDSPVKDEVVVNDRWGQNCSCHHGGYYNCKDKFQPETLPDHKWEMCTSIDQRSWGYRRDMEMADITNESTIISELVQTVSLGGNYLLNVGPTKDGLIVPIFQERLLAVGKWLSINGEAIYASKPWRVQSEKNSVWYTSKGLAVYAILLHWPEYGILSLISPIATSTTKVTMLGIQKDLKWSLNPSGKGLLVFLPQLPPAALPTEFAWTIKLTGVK
# Protocol: as §1
# [9] = biological target: β-N-Acetylgalactosaminidase (HL60); assay: β-N-Acetylgalactosaminidase (HL60) inhibition
# Protocol: as §1
# [10] = biological target: T4, Amyloglucosidase (A. niger) (Aspergillus niger, UniProt P69328); assay: Amyloglucosidase (A. niger) inhibition
# T4 construct: purchased Sigma-Aldrich Chemical Co
# T4 sequence (P69328 25-640): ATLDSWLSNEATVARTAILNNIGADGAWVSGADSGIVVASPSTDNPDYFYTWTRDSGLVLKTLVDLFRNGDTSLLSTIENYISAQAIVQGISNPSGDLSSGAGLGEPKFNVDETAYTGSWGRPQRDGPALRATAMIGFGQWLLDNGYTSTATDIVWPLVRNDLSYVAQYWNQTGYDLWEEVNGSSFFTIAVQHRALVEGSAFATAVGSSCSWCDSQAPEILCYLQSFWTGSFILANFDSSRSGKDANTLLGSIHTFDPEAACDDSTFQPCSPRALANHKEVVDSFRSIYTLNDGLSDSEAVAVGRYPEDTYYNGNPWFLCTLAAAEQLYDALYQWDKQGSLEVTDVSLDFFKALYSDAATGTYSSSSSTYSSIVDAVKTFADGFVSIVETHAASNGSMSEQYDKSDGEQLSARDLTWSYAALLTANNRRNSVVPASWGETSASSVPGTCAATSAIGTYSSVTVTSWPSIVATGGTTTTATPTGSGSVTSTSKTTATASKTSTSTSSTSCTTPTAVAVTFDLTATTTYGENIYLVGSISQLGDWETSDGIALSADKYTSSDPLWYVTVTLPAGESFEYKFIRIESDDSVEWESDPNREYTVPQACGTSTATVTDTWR
# Protocol: as §1
# [11] = biological target: T5, α-Galactosidase (Coffee beans) (Coffea arabica, UniProt Q42656); assay: α-Galactosidase (coffee beans) inhibition
# T5 construct: purchased Sigma-Aldrich Chemical Co
# T5 sequence (Q42656 16-378): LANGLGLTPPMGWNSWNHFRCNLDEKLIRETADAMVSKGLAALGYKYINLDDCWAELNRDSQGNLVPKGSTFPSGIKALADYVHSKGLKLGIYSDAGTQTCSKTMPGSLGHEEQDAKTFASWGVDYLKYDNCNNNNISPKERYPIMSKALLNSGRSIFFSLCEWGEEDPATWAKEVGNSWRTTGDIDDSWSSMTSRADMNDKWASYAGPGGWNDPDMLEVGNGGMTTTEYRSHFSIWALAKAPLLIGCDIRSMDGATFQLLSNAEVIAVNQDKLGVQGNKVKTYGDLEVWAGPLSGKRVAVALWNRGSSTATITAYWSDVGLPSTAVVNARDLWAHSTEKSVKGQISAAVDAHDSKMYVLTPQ
# Protocol: as §1
# [12] = biological target: β-N-Acetylhexosaminidase (Jack bean); assay: β-N-Acetylhexosaminidase (Jack bean) inhibition; settings: β-N-Acetylhexosaminidase (β-GlcNAcase), read-out: IC50
# Protocol: as §1
# [13] = biological target: β-Glucosidase (Almond); assay: β-Glucosidase (almond) inhibition
# Protocol: as §1
# [14] = biological target: T6, α-Glucosidase (Rice) (Oryza sativa subsp. japonica, UniProt Q653V7); assay: α-Glucosidase (rice) inhibition
# T6 construct: purchased Sigma-Aldrich Chemical Co
# T6 sequence (Q653V7 34-885): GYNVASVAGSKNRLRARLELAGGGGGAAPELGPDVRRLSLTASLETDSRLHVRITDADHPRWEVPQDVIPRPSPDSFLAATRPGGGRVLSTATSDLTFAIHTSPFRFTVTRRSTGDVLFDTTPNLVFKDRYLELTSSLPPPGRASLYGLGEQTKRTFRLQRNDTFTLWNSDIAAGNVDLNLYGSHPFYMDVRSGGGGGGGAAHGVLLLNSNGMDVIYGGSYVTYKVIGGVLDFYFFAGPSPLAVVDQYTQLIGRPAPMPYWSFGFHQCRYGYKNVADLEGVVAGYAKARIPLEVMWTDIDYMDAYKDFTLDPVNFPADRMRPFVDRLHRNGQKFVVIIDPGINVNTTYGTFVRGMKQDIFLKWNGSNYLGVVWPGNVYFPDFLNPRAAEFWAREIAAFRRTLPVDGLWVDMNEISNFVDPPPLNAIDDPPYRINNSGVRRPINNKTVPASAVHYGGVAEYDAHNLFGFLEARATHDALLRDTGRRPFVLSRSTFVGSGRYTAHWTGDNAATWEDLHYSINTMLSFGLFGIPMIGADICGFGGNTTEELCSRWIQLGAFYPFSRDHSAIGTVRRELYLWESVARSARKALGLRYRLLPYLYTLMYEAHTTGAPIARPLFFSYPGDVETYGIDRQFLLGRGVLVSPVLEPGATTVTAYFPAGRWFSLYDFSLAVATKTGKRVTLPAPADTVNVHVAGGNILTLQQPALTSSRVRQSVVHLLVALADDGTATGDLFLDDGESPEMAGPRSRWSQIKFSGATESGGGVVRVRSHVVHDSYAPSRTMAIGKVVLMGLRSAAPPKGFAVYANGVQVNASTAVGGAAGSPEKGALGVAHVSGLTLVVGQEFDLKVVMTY
# Protocol: as §1
# [15] = biological target: β-Mannosidase (Snail); assay: β-Mannosidase (snail) inhibition
# Protocol: as §1
# [16] = biological target: T7, β-Galactosidase (Bovine liver) (Bos taurus, UniProt F1MNT6); assay: β-Galactosidase (bovine liver) inhibition
# T7 sequence (F1MNT6 1-469): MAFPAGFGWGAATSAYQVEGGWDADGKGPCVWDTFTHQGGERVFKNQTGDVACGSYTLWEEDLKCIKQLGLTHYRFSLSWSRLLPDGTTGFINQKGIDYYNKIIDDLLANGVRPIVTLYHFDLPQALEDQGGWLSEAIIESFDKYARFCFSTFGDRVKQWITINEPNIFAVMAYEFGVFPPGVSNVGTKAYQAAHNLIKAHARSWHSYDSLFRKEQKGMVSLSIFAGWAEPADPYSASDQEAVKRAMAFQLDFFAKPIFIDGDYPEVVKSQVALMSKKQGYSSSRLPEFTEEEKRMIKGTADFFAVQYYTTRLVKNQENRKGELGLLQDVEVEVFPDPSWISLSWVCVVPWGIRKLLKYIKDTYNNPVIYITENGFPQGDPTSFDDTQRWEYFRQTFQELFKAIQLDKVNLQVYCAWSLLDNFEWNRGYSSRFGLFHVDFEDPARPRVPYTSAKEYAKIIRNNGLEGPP
# Protocol: as §1
# [17] = 1000 μM, read-out: Inhibition % at 1000 μM
# [18] = read-out: Inhibition % at 1000 μM
# [19] = α-Glucosidase, Yeast, read-out: IC50
Compound,IC50 [3],Inhibition % at 1000 μM [3],"inhibition at 1000 µM [4, 17]",inhibition at 1000 µM ([4]; read-out: IC50),IC50 [6],Inhibition % at 1000 μM [6],"inhibition at 1000 µM [7, 17]",inhibition at 1000 µM ([7]; read-out: IC50),"inhibition at 1000 µM [8, 17]",inhibition at 1000 µM ([8]; read-out: IC50),"inhibition at 1000 µM [10, 17]",inhibition at 1000 µM ([10]; read-out: IC50),"inhibition at 1000 µM [11, 17]",inhibition at 1000 µM ([11]; read-out: IC50),IC50 [12],"inhibition at 1000 µM [5, 18]","inhibition at 1000 µM [5, 19]",IC50 [13],Inhibition % at 1000 μM [13],"inhibition at 1000 µM [16, 17]",other results
"CC(=O)NC[C@H]1N[C@H](CO)[C@@H](O)[C@@H]1O [4·HCl, 1-N-acetylamino-2,5-imino-1,2,5-trideoxy-D-mannitol hydrochloride]",NI (No Inhibition (less than 50% at 1000 μM)),33.8%,1.7%,< 50%,NI (No Inhibition (less than 50% at 1000 μM)),6.5%,0.6%,< 50%,1.5%,< 50%,40.6%,< 50%,1.1%,< 50%,0.21 µM,,,,,,"IC50 ([1]; read-out: IC50): 34 µM; IC50 ([2]; read-out: IC50): 4.7 µM; IC50 ([5]; α-Glucosidase, Yeast): 450 µM; IC50 ([9]; read-out: IC50): 9.5 µM; IC50 ([13]; read-out: IC50): 170 µM; IC50 [14]: 1000 µM; IC50 ([15]; read-out: IC50): 296 µM"
"CC(=O)NC[C@@H]1N[C@@H](CO)[C@H](O)[C@H]1O [A-10, 1-N-acetylamino-2,5-imino-1,2,5-trideoxy-L-mannitol hydrochloride]",NI (No Inhibition (less than 50% at 1000 μM)),2.0%,4.6%,< 50%,NI (No Inhibition (less than 50% at 1000 μM)),10.1%,0%,< 50%,0%,< 50%,5.5%,< 50%,0%,< 50%,202 µM,0.5%,< 50%,NI (No Inhibition (less than 50% at 1000 μM)),16.1%,1.6%,IC50 [1]: NI (No Inhibition (less than 50% at 1000 μM)); Inhibition % at 1000 μM [1]: 12.7%; IC50 ([2]; read-out: IC50): 943 µM; IC50 [9]: NI (No Inhibition (less than 50% at 1000 μM)); Inhibition % at 1000 μM [9]: 13.0%; IC50 [14]: 568 µM; inhibition at 1000 µM ([16]; read-out: IC50): < 50%; IC50 [15]: NI (No Inhibition (less than 50% at 1000 μM)); Inhibition % at 1000 μM [15]: 0%
"CC(=O)NC[C@@H]1N[C@@H](CO)[C@@H](O)[C@H]1O [C-10, 1-N-acetylamino-2,5-imino-1,2,5-trideoxy-L-altritol hydrochloride]",NI (No Inhibition (less than 50% at 1000 μM)),1.0%,0%,< 50%,NI (No Inhibition (less than 50% at 1000 μM)),3.6%,0.3%,< 50%,4.9%,< 50%,1.9%,< 50%,0.36%,< 50%,129 µM,0%,< 50%,NI (No Inhibition (less than 50% at 1000 μM)),0%,1.3%,"IC50 [1]: NI (No Inhibition (less than 50% at 1000 μM)); Inhibition % at 1000 μM [1]: 3.9%; IC50 [2]: NI (No Inhibition (less than 50% at 1000 μM)); Inhibition % at 1000 μM ([2]; β-N-Acetylhexosaminidase, 1000 μM): 36.3%; IC50 [9]: NI (No Inhibition (less than 50% at 1000 μM)); Inhibition % at 1000 μM [9]: 1.4%; inhibition at 1000 µM [14, 17]: 18.2%; inhibition at 1000 µM ([14]; read-out: IC50): < 50%; inhibition at 1000 µM ([16]; read-out: IC50): < 50%; IC50 [15]: NI (No Inhibition (less than 50% at 1000 μM)); Inhibition % at 1000 μM [15]: 0%"
"CC(=O)NC[C@H]1N[C@H](CO)[C@H](O)[C@@H]1O [D-10, 1-N-acetylamino-2,5-imino-1,2,5-trideoxy-D-altritol hydrochloride]",NI (2.4%) (No Inhibition (less than 50% at 1000 μM)),,1.3%,< 50%,NI (No Inhibition (less than 50% at 1000 μM)),8.3%,0%,< 50%,1.7%,< 50%,3.8%,< 50%,,,0.12 µM,0%,< 50%,NI (No Inhibition (less than 50% at 1000 μM)),41.0%,3.3%,"IC50 ([1]; read-out: IC50): 10 µM; IC50 ([9]; read-out: IC50): 8.8 µM; IC50 [11]: 380 µM; inhibition at 1000 µM [14, 17]: 26.1%; inhibition at 1000 µM ([14]; read-out: IC50): < 50%; inhibition at 1000 µM ([16]; read-out: IC50): < 50%; IC50 [15]: NI (No Inhibition (less than 50% at 1000 μM)); Inhibition % at 1000 μM [15]: 0%"
"CC(=O)NC[C@H]1N[C@@H](CO)[C@@H](O)[C@@H]1O [E-10a, 1-N-acetylamino-2,5-imino-1,2,5-trideoxy-D-glucitol hydrochloride]",NI (No Inhibition (less than 50% at 1000 μM)),4.1%,0%,< 50%,NI (No Inhibition (less than 50% at 1000 μM)),11.8%,0%,< 50%,41.7%,< 50%,4%,< 50%,0.36%,< 50%,10 µM,0%,< 50%,NI (No Inhibition (less than 50% at 1000 μM)),37.9%,4.9%,"IC50 ([1]; read-out: IC50): 591 µM; IC50 ([2]; read-out: IC50): 95 µM; IC50 ([9]; read-out: IC50): 490 µM; inhibition at 1000 µM [14, 17]: 15.9%; inhibition at 1000 µM ([14]; read-out: IC50): < 50%; inhibition at 1000 µM ([16]; read-out: IC50): < 50%; IC50 [15]: NI (No Inhibition (less than 50% at 1000 μM)); Inhibition % at 1000 μM [15]: 25.8%"
